Laboratory results: patent US12018083B2, “Method for suppressing regulatory T cell infiltration by CCR4 inhibition and method for treating canine neoplastic disease” (NIPPON ZENYAKU KOGYO CO., LTD., priority 2017, dated 2024)
Blank lines part the entries; values can stand above or below the compound they belong to.

Legend:
[1] = system: canine transitional cell carcinoma; assay: Clinical test of Mogamulizumab combined with Piroxicam versus Piroxicam alone
Method: To the control group, Piroxicam alone was administered (14 cases). The number of CCR4-positive Tregs in the peripheral blood and a tumor size were evaluated before and after the administration.
In the figure, the terms “PR,” “SD,” and “PD” indicate definitions regarding a change in the size of a tumor in the midcourse of a treatment according to RECIST (Response Evaluation Criteria in Solid Tumors), which are evaluation criteria regarding therapeutic effects on solid cancers. Specifically, PR (Partial Response) indicates a state in which a sum of the sizes of tumors has been reduced by 30% or more, SD (Stable Disease) indicates a state in which the size of a tumor has not changed, and PD (Progressive Disease) indicates a state in which a sum of the sizes of tumors has been increased by 20% or more and the size has been increased by 5 mm or more as an absolute value, or a state in which a new lesion has appeared.

[2] = system: prostate cancer; assay: Clinical test on dogs, antitumor effects; format: in vivo, dog; details: 2/4 cases, 1 mg/kg intravenous every three weeks; FIG. 16
[3] = system: transitional cell carcinoma; assay: Clinical test on dogs, antitumor effects; format: in vivo, dog; details: 5/11 cases, 1 mg/kg intravenous every three weeks; FIG. 15
[4] = system: CCR4-positive Tregs in the peripheral blood; assay: Clinical test on dogs with various tumors, all 17 cases; format: in vivo, dog; details: 1 mg/kg intravenous every three weeks
Excerpt: In the case of prostate cancer, 2/4 cases (50%) had partial response, and 2/4 cases (50%) were stable (FIG. 16). In the case of breast cancer, 1/2 cases (50%) had partial response, and 1/2 cases (50%) was stable (FIG. 17). […] However, all of the side effects were mild.

[5] = target: T1, canine CCR4 (Canis lupus familiaris, UniProt Q8MJW8); assay: Chemotaxis assay with a membrane chamber, canine lymphocyte cell line CL-1 and canine recombinant CCL17; format: cell-based; details: canine lymphocyte cell line CL-1; FIG. 8
T1 construct: Using a canine lymphocyte cell line (CL-1) expressing canine recombinant CCL17 and CCR4, a chemotaxis assay was carried out; endogenous in cells; host or cells: CL-1 canine lymphocyte cell line
T1 sequence (Q8MJW8 1-360): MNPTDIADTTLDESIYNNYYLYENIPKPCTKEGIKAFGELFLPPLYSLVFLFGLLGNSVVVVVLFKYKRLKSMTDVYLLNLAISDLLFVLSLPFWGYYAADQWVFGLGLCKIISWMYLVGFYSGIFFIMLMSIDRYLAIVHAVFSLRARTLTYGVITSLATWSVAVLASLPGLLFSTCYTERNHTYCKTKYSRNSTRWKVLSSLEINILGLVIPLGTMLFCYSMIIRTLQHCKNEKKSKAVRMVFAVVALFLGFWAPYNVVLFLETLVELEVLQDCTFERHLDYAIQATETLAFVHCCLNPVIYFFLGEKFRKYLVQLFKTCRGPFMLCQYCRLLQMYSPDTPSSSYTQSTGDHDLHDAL
Method: Thus, the cross-reactivity of these inhibitors with canine CCR4 was studied. Using a canine lymphocyte cell line (CL-1) expressing canine recombinant CCL17 and CCR4, a chemotaxis assay was carried out with a membrane chamber.

[6] = system: CCR4-positive T cells in blood; assay: Single intravenous administration of anti-human CCR4 antibody to healthy dog; format: in vivo
Excerpt: Furthermore, the effects were sustained for 3 to 4 weeks. […] These side effects were improved 1 week after the administration, without any treatments.

[7] = system: canine transitional cell carcinoma cell line; assay: Cancer-bearing mouse models, NOG mice transplanted with canine tumor cells; format: in vivo
Method: A comparison was made among the groups, in terms of the tumor volume of the transplanted transitional cell carcinoma cells. […] The tumor tissues were collected from each group at the end point, and the collected tumor tissues were subjected to a histopathologic examination involving H & E (Hematoxylin-Eosin) staining. […] In FIG. 11, the whitish portion in the black-and-white photograph indicates a focus of necrosis. […] Furthermore, intratumoral infiltration of Tregs was evaluated by performing immunohistochemistry on Foxp3. […] In FIG. 12, the portions seen as black points in the black-and-white photograph are sites in which Foxp3-positive Tregs are present.

[8] = system: breast cancer; assay: Clinical test on dogs, antitumor effects; format: in vivo, dog; details: 1/2 cases, 1 mg/kg intravenous every three weeks; FIG. 17

Compound: Mogamulizumab: anti-human CCR4 antibody (Kyowa Kirin Co., Ltd.), a neutralizing antibody
- number of CCR4-positive Tregs in the peripheral blood ([1]; after Mogamulizumab 1 mg/kg IV every three weeks plus Piroxicam 0.3 mg/kg PO daily, FIG. 18, 19): reduced
- response percentage according to RECIST ([1]; combined use group with Mogamulizumab versus single administration group of Piroxicam, FIG. 22, 23): higher response percentage
- progression-free survival periods (PFS) ([1]; combined use group with Mogamulizumab versus single administration group of Piroxicam, FIG. 24): better improvement
- overall survival periods (OS) ([1]; combined use group with Mogamulizumab versus single administration group of Piroxicam, FIG. 25): better improvement
- tumor (mass) size / tumor volume ([1]; combined use group with Mogamulizumab, FIG. 20, 21): reduced
- cases with partial response [2]: 50%
- cases with partial response [3]: 45.5%
- side effect: facial edema and/or redness, cases ([4]; 1/17 cases): 5.9%
- side effect: slight increase in ALP, cases ([4]; 3/17 cases): 17.6%
- side effect: vomiting, cases ([4]; 3/17 cases): 17.6%
- severity of all of the side effects ([4]; 17 cases): mild
- number of CCR4-positive Tregs in peripheral blood ([4]; all cases, FIG. 14): drastically reduced
- migration of CL-1 by the recombinant CCL17 [5]: significantly suppressed
- side effects ([6]; 1 mg/kg intravenous): nausea, a slight increase in ALP, and a slight increase in CRP
- time after administration at which side effects improved without any treatments ([6]; 1 mg/kg intravenous): 1 week
- number of CCR4-positive T cells in blood ([6]; 1 mg/kg intravenous, flow cytometry, FIG. 9): reduced by half
- side effects ([6]; 0.01 to 0.1 mg/kg intravenous): no side effects were found
- intratumoral infiltration of Tregs (Foxp3 immunohistochemistry) ([7]; combined use group of canine PBMC and Mogamulizumab versus canine PBMC group, FIG. 12, 13): significantly suppressed
- focus of necrosis in tumor tissue (H & E staining) ([7]; combined use group of canine PBMC and Mogamulizumab, compared with other groups, FIG. 11): an expansion of the focus of necrosis was observed
- growth of the tumor (tumor volume) ([7]; combined use group of canine PBMC and Mogamulizumab, FIG. 10): significantly suppressed
- cases with partial response [8]: 50%

- migration of CL-1 by the recombinant CCL17 [5]: significantly suppressed
Compound: COc1cc2nc(N3CCC(N4CCCCC4)CC3)nc(NC3CCCCCC3)c2cc1OC.Cl.Cl [C-021, 2-[1,4′-bipiperidin]-1′-yl-N-cycloheptyl-6,7-dimethoxy-4-quinazolinamine dihydrochloride]
